pIC50: −log10 of the molar value. Like-named read-outs stand apart in the source and are kept apart here.
Columns and labels:
[1] = molecular target: T1, hROMK (human Kir1.1) (Homo sapiens (Human), UniProt P48048); assay: cell-based; conditions: CHO T-Rex hROMK stable cell line; thallium flux; 10-point concentration response curve; read-out: Human ROMK Th Flux IC50
[2] = molecular target: T1, hROMK (human Kir1.1); assay: cell-based; type: cell-based; conditions: whole-cell manual patch clamp, CHO T-Rex hROMK stable cell line, voltage step to -120 mV, Ba2+-subtracted hROMK current; read-out: ROMK EP IC50
Procedure: ROMK Manual Patch Clamp Assay
Cell culture conditions: Cells were maintained in conditions similar to those for Thallium flux assay. hROMK channel expression was induced by adding 0.6 μg/ml of Doxycycline 16-24 hrs prior to the experiments. On the day of experiment, the cells were dissociated using Versene, resuspended in growth media and plated onto coverslips 15 minutes prior to use.
Electrophysiology: The coverslip plated with cells was placed in the experiment chamber perfused with bath solution composed of (in mM): 135 NaCl, 5 KCl, 2 CaCl2, 1 MgCl2, 10 HEPES, 5 Glucose (pH 7.4). Patch pipettes with resistance between 2-5 Megaohms, when filled with a solution containing (in mM): 135 KCl, 1 EGTA, 1 MgCl2, 10 HEPES, 2 Na2ATP (pH 7.3), were used to form gigaseals. The cells were voltage clamped at −75 mV in whole-cell configuration using an Axopatch 200b or Multiclamp 700b (Molecular Devices) amplifier controlled by pClamp Software (Molecular Devices). The current was recorded by applying a voltage step to −120 mV every 10 seconds. […] At the end of the experiment, the cells were perfused with bath solution containing 2 mM Ba^2+ to isolate the contribution of hROMK current.
Data analysis: Raw current values (5 traces each for control, different compound concentration and Ba^2+ treatment groups) were exported from Clampfit into Microsoft Excel where the current remaining after application of Ba^2+ was subtracted from raw current to obtain hROMK specific current.

[3] = molecular target: hERG channels (Homo sapiens (Human), UniProt Q12809); assay: hERG Manual Patch Clamp Assay; type: cell-based; conditions: human, HEK 293 cells stably expressing hERG channels, pH 7.4, 1 uM, read-out: hERG EP % Inh @ 1 uM
Sequence of hERG channels (Q12809 whole entry): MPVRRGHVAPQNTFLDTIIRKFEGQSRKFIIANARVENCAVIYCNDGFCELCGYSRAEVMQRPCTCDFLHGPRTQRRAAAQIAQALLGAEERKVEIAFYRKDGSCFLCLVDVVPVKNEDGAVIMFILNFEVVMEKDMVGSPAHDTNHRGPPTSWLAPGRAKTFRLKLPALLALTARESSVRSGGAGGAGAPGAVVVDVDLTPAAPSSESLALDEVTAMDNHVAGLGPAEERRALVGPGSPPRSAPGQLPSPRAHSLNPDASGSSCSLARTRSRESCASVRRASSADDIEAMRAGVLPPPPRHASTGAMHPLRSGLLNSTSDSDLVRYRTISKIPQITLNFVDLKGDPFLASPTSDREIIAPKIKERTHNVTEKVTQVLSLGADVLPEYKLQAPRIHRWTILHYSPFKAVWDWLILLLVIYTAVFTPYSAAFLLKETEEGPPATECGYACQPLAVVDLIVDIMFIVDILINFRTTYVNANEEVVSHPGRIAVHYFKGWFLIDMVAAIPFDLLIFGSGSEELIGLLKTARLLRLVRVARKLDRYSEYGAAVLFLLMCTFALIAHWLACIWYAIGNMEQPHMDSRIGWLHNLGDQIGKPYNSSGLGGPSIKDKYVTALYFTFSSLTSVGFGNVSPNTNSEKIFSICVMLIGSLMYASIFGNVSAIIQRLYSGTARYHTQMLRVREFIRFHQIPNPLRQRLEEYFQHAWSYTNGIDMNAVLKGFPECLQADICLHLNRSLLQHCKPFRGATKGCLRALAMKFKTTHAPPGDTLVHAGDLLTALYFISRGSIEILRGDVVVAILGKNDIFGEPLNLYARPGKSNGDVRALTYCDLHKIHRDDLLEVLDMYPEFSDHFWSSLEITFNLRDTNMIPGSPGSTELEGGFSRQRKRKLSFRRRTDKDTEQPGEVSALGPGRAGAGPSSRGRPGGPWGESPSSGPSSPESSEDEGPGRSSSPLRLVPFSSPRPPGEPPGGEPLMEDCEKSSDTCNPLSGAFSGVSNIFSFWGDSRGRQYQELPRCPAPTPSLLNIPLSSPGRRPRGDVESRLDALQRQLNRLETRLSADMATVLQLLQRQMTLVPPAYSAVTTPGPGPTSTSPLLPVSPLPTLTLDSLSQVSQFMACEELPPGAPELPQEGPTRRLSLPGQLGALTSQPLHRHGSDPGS
Procedure: hERG electrophysiology assay: The experimental compounds were assessed for hERG activity on HEK 293 cells stably expressing hERG channels using patch clamp technique. Coverslips plated with hERG expressing cells were placed in the experimental chamber and were perfused with a solution composed of (in mM): 140 NaCl, 4 KCl, 1.8 CaCl2, 1 MgCl2, 10 Glucose, 10 HEPES (pH 7.4, NaOH) at room temperature. Borosilicate patch pipettes had tip resistances of 2-4 Mohms when filled with an internal solution containing: 130 KCl, 1 MgCl2, 1 CaCl2, 10 EGTA, 10 HEPES, 5 ATP-K2 (pH 7.2, KOH). The cells were clamped at −80 mV in whole cell configuration using an Axopatch 200B (Axon instruments, Union City, Calif.) patch clamp amplifier controlled by pClamp (Axon instruments) software. Upon formation of a gigaseal, the following voltage protocol was repeatedly (0.05 Hz) applied to record tail currents: depolarization step from −80 mV to +20 mV for 2 seconds followed by a hyperpolarization step to −65 mV (3 seconds) to elicit tail currents. Compounds were applied after stabilization of tail current. First, tail currents were recorded in presence of extracellular solution alone (control) and subsequently, in extracellular solution containing increasing compound concentrations. Each compound concentration was applied for 2-5 minutes. The percentage inhibition at each concentration was calculated as reduction in peak tail current with respect to the peak tail current recorded in the presence of control solution. Data analysis was performed in a custom made template. The percent inhibitions at different concentrations were plotted to obtain a concentration response curve, which was subsequently fitted with a four parameter equation to calculate hERG IC50 value.

T1 sequence (P48048 whole entry): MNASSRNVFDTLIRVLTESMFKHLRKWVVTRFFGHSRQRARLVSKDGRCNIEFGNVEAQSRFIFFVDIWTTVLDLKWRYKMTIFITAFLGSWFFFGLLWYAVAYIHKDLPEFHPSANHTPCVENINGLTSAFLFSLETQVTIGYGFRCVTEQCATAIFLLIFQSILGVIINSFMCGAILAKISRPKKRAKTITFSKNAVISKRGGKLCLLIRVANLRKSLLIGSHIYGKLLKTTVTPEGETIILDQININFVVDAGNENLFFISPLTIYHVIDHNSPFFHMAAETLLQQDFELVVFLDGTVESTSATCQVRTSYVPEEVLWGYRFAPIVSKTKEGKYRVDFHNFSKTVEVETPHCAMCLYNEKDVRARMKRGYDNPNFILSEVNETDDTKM

Cc1cc(-n2cc(CN3CC(c4ccc5c(c4C)COC5=O)NCC3C)cn2)ncc1C#N (single isomer, unassigned) [Example 244-II, 4-methyl-6-(4-((2-methyl-5-(4-methyl-1-oxo-1,3-dihydroisobenzofuran-5-yl)piperazin-1-yl)methyl)-1H-pyrazol-1-yl)nicotinonitrile]
pIC50 [1]: 7.77
pIC50 [2]: 7.66

Cc1c([C@@H]2CN(Cc3cn(-c4ccc5oc(=O)n(C)c5c4)nn3)CCN2)ccc2c1COC2=O [Example 61-I, (R)-3-methyl-5-(4-((3-(4-methyl-1-oxo-1,3-dihydroisobenzofuran-5-yl)piperazin-1-yl)methyl)-1H-1,2,3-triazol-1-yl)benzo[d]oxazol-2 (3H)-one]
pIC50 [2]: 7.40

COc1cc(-n2cnc(CN3C[C@@H](c4ccc5c(c4C)COC5=O)N[C@@H](C)C3)c2)ncc1C#N [Example 97-I, 4-methoxy-6-(4-(((3S,5R)-3-methyl-5-(4-methyl-1-oxo-1,3-dihydroisobenzofur-an-5-yl)piperazin-1-yl)methyl)-1H-imidazol-1-yl)nicotinonitrile]
pIC50 [1]: 7.55
pIC50 [2]: 7.37

Cc1cc(-n2cc(CN3C[C@@H](c4ccc5c(c4C)COC5=O)N[C@@H](C)C3)nn2)ncc1C#N [Example 106-I, 4-methyl-6-(4-(((3S,5R)-3-methyl-5-(4-methyl-1-oxo-1,3-dihydroisobenzofur-an-5-yl)piperazin-1-yl)methyl)-1H-1,2,3-triazol-1-yl)nicotinonitrile]
pIC50 [2]: 8.00
inhibition at 1 µM [3]: 0.98%

CCc1nn(-c2ccc(CN3CCN[C@H](c4ccc5c(c4C)COC5=O)C3)cn2)cc1C#N [Example 226-I, (R)-3-ethyl-1-(5-((3-(4-methyl-1-oxo-1,3-dihydroisobenzofuran-5-yl)piperazin-1-yl)methyl)pyridin-2-yl)-1H-pyrazole-4-carbonitrile]
pIC50 [1]: 7.85
inhibition at 1 µM [3]: 33%

COc1nn(-c2ncc(CN3CCN[C@H](c4ccc5c(c4C)COC5=O)C3)cn2)cc1C#N [Example 227-I, (R)-3-methoxy-1-(5-((3-(4-methyl-1-oxo-1,3-dihydroisobenzofuran-5-yl)piperazin-1-yl)methyl)pyrimidin-2-yl)-1H-pyrazole-4-carbonitrile]
pIC50 [1]: 7.55
inhibition at 1 µM [3]: 18%

Cc1c([C@@H]2CN(Cc3cnc(-n4cc(C#N)c(C(F)F)n4)nc3)CCN2)ccc2c1COC2=O [Example 229-I, (R)-3-(difluoromethyl)-1-(5-((3-(4-methyl-1-oxo-1,3-dihydroisobenzofuran-5-yl)piperazin-1-yl)methyl)pyrimidin-2-yl)-1H-pyrazole-4-carbonitrile]
pIC50 [1]: 7.68
inhibition at 1 µM [3]: 25%

Cc1cc(-n2cc(CN3CCN[C@H](c4ccc5c(c4C)COC5=O)C3)c(C(F)F)n2)ncc1C#N [Example 233-I, (R)-6-(3-(difluoromethyl)-4-((3-(4-methyl-1-oxo-1,3-dihydroisobenzofuran-5-yl)piperazin-1-yl)methyl)-1H-pyrazol-1-yl)-4-methylnicotinonitrile]
pIC50 [1]: 7.66
inhibition at 1 µM [3]: 31%

Cc1cc(-n2cc(CN3CCN[C@H](c4ccc5c(c4C)COC5=O)C3)c(C3CC3)n2)ncc1C#N [Example 237-I, (R)-6-(3-cyclopropyl-4-((3-(4-methyl-1-oxo-1,3-dihydroisobenzofuran-5-yl)piperazin-1-yl)methyl)-1H-pyrazol-1-yl)-4-methylnicotinonitrile]
pIC50 [1]: 7.16
inhibition at 1 µM [3]: 37%

Cc1cc(-n2cc(CN3CCN[C@H](c4ccc5c(c4)COC5=O)C3)cn2)ncc1C#N [Example 239-I, (R)-4-methyl-6-(4-((3-(1-oxo-1,3-dihydroisobenzofuran-5-yl)piperazin-1-yl)methyl)-1H-pyrazol-1-yl)nicotinonitrile]
pIC50 [1]: 7.20
inhibition at 1 µM [3]: 18%

Cc1nn(-c2ccc(CN3CCN[C@H](c4ccc5c(c4C)COC5=O)C3)nc2)cc1C#N [Example 241-I, (R)-3-methyl-1-(6-((3-(4-methyl-1-oxo-1,3-dihydroisobenzofuran-5-yl)piperazin-1-yl)methyl)pyridin-3-yl)-1H-pyrazole-4-carbonitrile]
pIC50 [1]: 7.39
inhibition at 1 µM [3]: 18%

Cc1cn(-c2ccc(CN3CCN[C@H](c4ccc5c(c4C)COC5=O)C3)cn2)nc1C#N [Example 242-I, (R)-4-methyl-1-(5-((3-(4-methyl-1-oxo-1,3-dihydroisobenzofuran-5-yl)piperazin-1-yl)methyl)pyridin-2-yl)-1H-pyrazole-3-carbonitrile]
pIC50 [1]: 8.00
inhibition at 1 µM [3]: 36%

Cc1cn(-c2ncc(CN3CCN[C@H](c4ccc5c(c4C)COC5=O)C3)cn2)nc1C#N [Example 243-I, (R)-4-methyl-1-(5-((3-(4-methyl-1-oxo-1,3-dihydroisobenzofuran-5-yl)piperazin-1-yl)methyl)pyrimidin-2-yl)-1H-pyrazole-3-carbonitrile]
pIC50 [1]: 7.89
inhibition at 1 µM [3]: 9.8%

Cc1cc(-n2cc(CN3CC[C@@H](O)[C@H](c4ccc5c(c4C)COC5=O)C3)c(C(F)F)n2)ncc1C#N [Example 245-I, 6-(3-(difluoromethyl)-4-(((3R,4R)-4-hydroxy-3-(4-methyl-1-oxo-1,3-dihydroisobenzofuran-5-yl)piperidin-1-yl)methyl)-1H-pyrazol-1-yl)-4-methylnicotinonitrile]
pIC50 [1]: 7.74
inhibition at 1 µM [3]: 17%

Cc1c([C@@H]2CN(Cc3cnn(-c4cccc(N5CCOC5=O)n4)c3)C[C@H](C)N2)ccc2c1COC2=O [Example 249-I, 3-(6-(4-(((3S,5R)-3-methyl-5-(4-methyl-1-oxo-1,3-dihydroisobenzofuran-5-yl)piperazin-1-yl)methyl)-1H-pyrazol-1-yl)pyridin-2-yl)oxazolidin-2-one]
pIC50 [1]: 6.92
inhibition at 1 µM [3]: 9.1%

Cc1cc(-n2cc(CN3CC[C@@H](O)[C@H](c4ccc5c(c4C)COC5=O)C3)n(C)c2=O)ncc1C#N [Example 250-I, 6-(4-(((3R,4R)-4-hydroxy-3-(4-methyl-1-oxo-1,3-dihydroisobenzofuran-5-yl)piperidin-1-yl)methyl)-3-methyl-2-oxo-2,3-dihydro-1H-imidazol-1-yl)-4-methylnicotinonitrile]
pIC50 [1]: 7.57
inhibition at 1 µM [3]: 20%

Cc1cc(N2CCOC2=O)cc(-n2cc(CN3C[C@@H](c4ccc5c(c4C)COC5=O)N[C@@H](C)C3)cn2)n1 [Example 251-I, 3-(2-methyl-6-(4-(((3S,5R)-3-methyl-5-(4-methyl-1-oxo-1,3-dihydroisobenzofuran-5-yl)piperazin-1-yl)methyl)-1H-pyrazol-1-yl)pyridin-4-yl)oxazolidin-2-one]
pIC50 [1]: 7.21
inhibition at 1 µM [3]: 7.6%

Cc1c([C@@H]2CN(Cc3cnn(-c4cccc(N(C)S(C)(=O)=O)n4)c3)C[C@H](C)N2)ccc2c1COC2=O [Example 252-I, N-methyl-N-(6-(4-(((3S,5R)-3-methyl-5-(4-methyl-1-oxo-1,3-dihydroisobenzofuran-5-yl)piperazin-1-yl)methyl)-1H-pyrazol-1-yl)pyridin-2-yl)methanesulfonamide]
pIC50 [1]: 7.14
inhibition at 1 µM [3]: 8.8%

Cc1cc(-c2nc(CN3C[C@@H](c4ccc5c(c4C)COC5=O)N[C@@H](C)C3)no2)ncc1C#N [Example 259-I, 4-methyl-6-(3-(((3S,5R)-3-methyl-5-(4-methyl-1-oxo-1,3-dihydroisobenzofuran-5-yl)piperazin-1-yl)methyl)-1,2,4-oxadiazol-5-yl)nicotinonitrile]
pIC50 [1]: 7.28
inhibition at 1 µM [3]: 8.6%

Cc1cc(-n2nnc(CN3C[C@@H](c4ccc5c(c4C)COC5=O)N[C@@H](C)C3)n2)ccc1C#N [Example 265-I, 2-methyl-4-(5-(((3S,5R)-3-methyl-5-(4-methyl-1-oxo-1,3-dihydroisobenzofuran-5-yl)piperazin-1-yl)methyl)-2H-tetrazol-2-yl)benzonitrile]
pIC50 [1]: 7.66
inhibition at 1 µM [3]: 20%

Cc1cc(-n2cc(CN3C[C@@H](c4ccc5c(c4C)COC5=O)N[C@@H](C)C3)n(C)c2=O)ccn1 [Example 266-I, 3-methyl-4-(((3S,5R)-3-methyl-5-(4-methyl-1-oxo-1,3-dihydroisobenzofuran-5-yl)piperazin-1-yl)methyl)-1-(2-methylpyridin-4-yl)-1,3-dihydro-2H-imidazol-2-one]
pIC50 [1]: 7.44
inhibition at 1 µM [3]: 3.1%

COc1cc(-c2cc(CN3C[C@@H](c4ccc5c(c4C)COC5=O)N[C@@H](C)C3)on2)ncc1C#N [Example 269-I, 4-methoxy-6-(5-(((3S,5R)-3-methyl-5-(4-methyl-1-oxo-1,3-dihydroisobenzofuran-5-yl)piperazin-1-yl)methyl)isoxazol-3-yl)nicotinonitrile]
pIC50 [1]: 7.62
inhibition at 1 µM [3]: 9.5%

COc1cc(-n2nnc(CN3CC[C@@H](O)[C@H](c4ccc5c(c4C)COC5=O)C3)n2)ccc1C#N [Example 272-I, 4-(5-(((3R,4R)-4-hydroxy-3-(4-methyl-1-oxo-1,3-dihydroisobenzofuran-5-yl)piperidin-1-yl)methyl)-2H-tetrazol-2-yl)-2-methoxybenzonitrile]
pIC50 [1]: 7.19
inhibition at 1 µM [3]: 5.2%

COc1cc(N2CC(CN3C[C@@H](c4ccc5c(c4C)COC5=O)N[C@@H](C)C3)N(C)C2=O)ncc1C#N (stereo partly drawn) [Example 274-I, 4-methoxy-6-(3-methyl-4-(((3S,5R)-3-methyl-5-(4-methyl-1-oxo-1,3-dihydroisobenzofuran-5-yl)piperazin-1-yl)methyl)-2-oxoimidazolidin-1-yl)nicotinonitrile]
pIC50 [1]: 7.24
inhibition at 1 µM [3]: 43%

COc1cc(-n2cc(CN3C[C@@H](c4ccc5c(c4C)COC5=O)N[C@@H](C)C3)n(C)c2=O)ccn1 [Example 275-I, 1-(2-methoxypyridin-4-yl)-3-methyl-4-(((3S,5R)-3-methyl-5-(4-methyl-1-oxo-1,3-dihydroisobenzofuran-5-yl)piperazin-1-yl)methyl)-1,3-dihydro-2H-imidazol-2-one]
pIC50 [1]: 7.38
inhibition at 1 µM [3]: 8.4%

Source: patent US10501449B2 (priority 2018, dated 2019)
